*1 amine or outer side, *2 acyl side, *3 side chain or, on linkers, in order; H or OH if unused. Where a SMILES comes first, the peptide text is derived from it. Bridges are numbered along the chain shown (N, C = ends). [ ]: non-standard residue; d: D form. 2Nal = N[C@@H](Cc1ccc2ccccc2c1)C(=O)O; AEF = NCCOc1ccc(C[C@H](N)C(=O)O)cc1; X1 = O=C(Cc1ccc(CN[*:1])cc1)[*:2]; 3Pal = N[C@@H](Cc1cccnc1)C(=O)O; αMeL = CC(C)C[C@](C)(N)C(=O)O; Dab = NCC[C@H](N)C(=O)O

Consider 5 compounds from EP4471049A1 (Zealand Pharma A/S, priority 2023, dated 2024).

A short description of series [1]: Peptide stability in simulated intestinal fluid (SIF). The class given is in vitro ADME. The settings on record: pig, simulated intestinal fluid (SIF) with porcine pancreatin, 37 °C, pH 6.8, porcine pancreatin 10 g/L, 10 µM; for remaining at 4 h, 10 µM: read-out: SIF (% remaining 4 h). The gist of the method: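 Peptides were incubated at 37 °C with gentle shaking in pH 6.8 potassium phosphate SIF containing porcine pancreatin (10 g/L). Supernatants were analysed by LC-HRMS. Percent remaining at each timepoint, including 4 h, was calculated relative to time zero from absolute peak areas.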

Series [2] is described as follows: Peptide stability in simulated gastric fluid (SGF). It counts as in vitro ADME. The settings on record: pig, simulated gastric fluid (SGF) with porcine pepsin, 37 °C, pH 1.2, porcine pepsin 3.2 g/L. How it is done:
SGF was prepared by dissolving sodium chloride (0.2 g) in 50 mL of water. A volume of 0.7 mL of 10 M HCl was added to adjust the pH of the solution to 1.2 and the volume made up to 100 mL with water. […] SIF was prepared by dissolving monobasic potassium phosphate (0.68 g) in 50 mL of water and adjusting the pH to 6.8 with 1 M NaOH. The volume was subsequently made up to 100 mL with water. 200 mg porcine pancreatin (P1625, Sigma Aldrich) was gently dissolved into 20 mL preheated (37 °C) solution (10 g/L) immediately prior to the incubation.
The incubation was performed at 37 °C with gentle shaking. […] After the last timepoint, the sampling plate was mixed for 10 min on a shaking table and centrifuged 10 min at 2200 g. 70 µL resulting supernatant was diluted with 150 µL water, mixed and centrifugated before analysis by liquid chromatography high resolution mass spectrometry. […] Percent remaining at each timepoint was calculated relative to timepoint zero based on absolute peak areas.
Compounds with a SGF stability (after 4 h) above 70% are considered highly SGF stable. […] Table 3-4: SGF data

A further series deals with T1, human IL-23R (Homo sapiens, UniProt Q5VWK5).
T1 sequence (Q5VWK5 22-629): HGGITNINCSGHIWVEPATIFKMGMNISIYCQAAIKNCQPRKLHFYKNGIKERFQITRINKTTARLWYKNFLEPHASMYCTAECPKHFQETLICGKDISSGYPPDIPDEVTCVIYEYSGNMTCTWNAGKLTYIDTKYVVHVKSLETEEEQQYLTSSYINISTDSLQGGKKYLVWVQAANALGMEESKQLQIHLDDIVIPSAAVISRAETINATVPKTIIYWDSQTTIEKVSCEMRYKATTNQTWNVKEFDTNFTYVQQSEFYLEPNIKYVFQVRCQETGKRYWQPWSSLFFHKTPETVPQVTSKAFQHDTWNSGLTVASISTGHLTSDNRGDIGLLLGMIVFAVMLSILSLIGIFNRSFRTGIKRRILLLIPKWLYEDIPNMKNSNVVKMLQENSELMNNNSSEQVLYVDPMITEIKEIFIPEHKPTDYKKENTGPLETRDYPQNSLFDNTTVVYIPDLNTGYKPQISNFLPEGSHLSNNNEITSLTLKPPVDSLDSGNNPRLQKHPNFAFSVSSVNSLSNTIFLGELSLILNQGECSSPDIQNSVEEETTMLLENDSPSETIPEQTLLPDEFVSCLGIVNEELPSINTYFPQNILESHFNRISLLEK
In words: biochemical. The gist of the method: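 Membranes from HEK293 cells stably expressing Nluc-tagged human IL-23R were incubated 2 h at room temperature with test compound and a fluorophore-labelled tracer. After substrate addition, loss of BRET (TAMRA over luciferase emission) reported tracer displacement. A 4PL fit gave IC50 values.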

In general, share remaining refers to what is left of the initial amount, in per cent. The IC50 is the midpoint of a concentration-inhibition curve. A higher IC50 goes with lower potency. Regarding `CNC(=O)[C@H](Cc1cccnc1)NC(=O)[C@H](COC)NC(=O)[C@@H]1CCC(=O)NCc2ccc(cc2)CC(=O)N[C@@H](CO)C(=O)N[C@H]2CCC(=O)NCC[C@H](NC(=O)[C@H](CCC(N)=O)NC(=O)[C@H](Cc3c[nH]c4ccccc34)NC2=O)C(=O)N[C@@H](Cc2ccc(OCCN)cc2)C(=O)N[C@@H](Cc2ccc3ccccc3c2)C(=O)N[C@@](C)(CC(C)C)C(=O)N1` [Compound 37, [4-Aminomethyl-phenylacetyl](1c)*SE(2c)WQ[Dab](2c)[Y(2-aminoethoxy)][2-Nal][2-Me-Leu]E(1 c)[Ser(OMe)][3-(3-Pyridyl)-Ala]-[NHMe]], in series [1], the share remaining at 1 h, 10 µM was 78% and the amount remaining at 4 h, 10 µM was 69%. Moreover, the amount remaining at 1 h, 10 µM in series [2] was 97%. Further, on human IL-23R, the “% displacement (hIL-23R binding)” value is listed as 95% and the IC50 turned out to be 0.013 nM.

Regarding `CNC(=O)[C@H](Cc1cccnc1)NC(=O)[C@@H](CO)NC(=O)[C@@H]1CCC(=O)NCc2ccc(cc2)CC(=O)N[C@@H](CO)C(=O)N[C@H]2CCC(=O)NCC[C@H](NC(=O)[C@H](CCC(N)=O)NC(=O)[C@H](Cc3c[nH]c4ccccc34)NC2=O)C(=O)N[C@@H](Cc2ccc(OCCN)cc2)C(=O)N[C@@H](Cc2ccc3ccccc3c2)C(=O)N[C@@](C)(CC(C)C)C(=O)N1` [Compound 38, [4-Aminomethyl-phenylacetyl](1c)*SE(2c)WQ[Dab](2c)[Y(2-aminoethoxy)][2-Nal][2-Me-Leu]E(1c)[{d}S][3-(3-Pyridyl)-Ala]-[NHMe]], the values for the fraction remaining at 4 h, 10 µM in series [1] and in series [2] were 65% and 91%, respectively. Also, at human IL-23R, the “% displacement (hIL-23R binding)” value was found to be 102%. The same compound registered an IC50 against human IL-23R of 0.066 nM.

Turning to `CNC(=O)[C@H](Cc1cccnc1)NC(=O)[C@](C)(CO)NC(=O)[C@@H]1CCC(=O)NCc2ccc(cc2)CC(=O)N[C@@H](CO)C(=O)N[C@H]2CCC(=O)NCC[C@H](NC(=O)[C@H](CCC(N)=O)NC(=O)[C@H](Cc3c[nH]c4ccccc34)NC2=O)C(=O)N[C@@H](Cc2ccc(OCCN)cc2)C(=O)N[C@@H](Cc2ccc3ccccc3c2)C(=O)N[C@@](C)(CC(C)C)C(=O)N1` [Compound 39, [4-Aminomethyl-phenylacetyl](1c)*SE(2c)WQ[Dab](2c)[Y(2-aminoethoxy)][2-Nal][2-Me-Leu]E(1c)[2-Me-Ser][3-(3-Pyridyl)-Ala]-[NHMe]], the results for the share remaining at 1 h, 10 µM in series [1] and in series [2] were 100% and 99%, respectively. Besides, on human IL-23R (read-out: % displacement (hIL-23R binding)), the Emax was found to be 99%.

As for `CNC(=O)[C@H](Cc1cccnc1)NC(=O)[C@H](CO)NC(=O)[C@@H]1CCC(=O)NCc2ccc(cc2)CC(=O)N[C@@H](C)C(=O)N[C@H]2CCC(=O)NCC[C@H](NC(=O)[C@H](CCC(N)=O)NC(=O)[C@H](Cc3c[nH]c4ccccc34)NC2=O)C(=O)N[C@@H](Cc2ccc(OCCN)cc2)C(=O)N[C@@H](Cc2ccc3ccccc3c2)C(=O)N[C@@](C)(CC(C)C)C(=O)N1` [Compound 40, [4-Aminomethyl-phenylacetyl](1c)*AE(2c)WQ[Dab](2c)[Y(2-aminoethoxy)][2-Nal][2-Me-Leu]E(1c)S[3-(3-Pyridyl)-Ala]-[NHMe]] ([X1]AEWQ[Dab][AEF][2Nal][αMeL]ES[3Pal]-NHMe; lactam 3-6, N-10), the amount remaining at 4 h, 10 µM in series [1] was 80%. In series [2], the share remaining at 1 h, 10 µM is 89%. Further, at human IL-23R, the “% displacement (hIL-23R binding)” value was 100% and 0.019 nM corresponded to half-maximal inhibition (IC50).

As to `CNC(=O)[C@H](Cc1cccnc1)NC(=O)[C@H](CCN)NC(=O)[C@@H]1CCC(=O)NCc2ccc(cc2)CC(=O)N[C@@H](C)C(=O)N[C@H]2CCC(=O)NCC[C@H](NC(=O)[C@H](CCC(N)=O)NC(=O)[C@H](Cc3c[nH]c4ccccc34)NC2=O)C(=O)N[C@@H](Cc2c[nH]c3ncccc23)C(=O)N[C@@H](Cc2ccc3ccccc3c2)C(=O)NC(C)(C)C(=O)N1` [Compound 43, [4-Aminomethyl-phenylacetyl](1c)*AE(2c)WQ[Dab](2c)[7-AzaTrp][2-Nal][Aib]E(1c)[Dab][3-(3-Pyridyl)-Ala]-[NHMe]], in series [1], the fraction remaining at 4 h, 10 µM was 92%. The same compound gave an amount remaining at 4 h, 10 µM in series [2] of 98%. Also, on human IL-23R, the “% displacement (hIL-23R binding)” value is recorded as 101% and the IC50 was 0.048 nM.
